According to US11382949B2, “Anthelmintic depsipeptide compounds” (BOEHRINGER INGELHEIM ANIMAL HEALTH USA INC., priority 2016, dated 2022):

Test system: Microfilaria of Dirofilaria immitis
Assay: Method A: screening of compounds against microfilaria of Dirofilaria immitis (microtitre plate, survival at 72 hours)
Type: cell-based
Details: read-out: mean EC50 values

SMILES: C[C@H]1OC(=O)[C@H](CC(C)(C)C)N(C)C(=O)[C@@H](Cc2ccc(SC(F)(F)F)cc2)OC(=O)[C@H](CC(C)(C)F)N(C)C(=O)[C@@H](C)OC(=O)[C@H](CC(C)(C)C)N(C)C(=O)[C@@H](Cc2ccc(SC(F)(F)F)cc2)OC(=O)[C@H](CC(C)(C)F)N(C)C1=O [44-46/1-4, (3S,6R,9S,12R,15S,18R,21S,24R)-3,15-bis(2-fluoro-2-methylpropyl)-4,6,10,16,18,22-hexamethyl-9,21-dineopentyl-12,24-bis(4-(trifluoromethylthio)benzyl)-1,7,13,19-tetraoxa-4,10,16,22-tetraazacyclotetracosan-2,5,8,11,14,17,20,23-octaone]
- EC50: < 1000 nM
